According to ChEMBL document CHEMBL1201862, “PubChem BioAssay data set” (2004):
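Results reflect a 48-hour exposure of cells in 96-well plates to compound at five concentrations. Abbreviation: GI50, concentration required for 50% inhibition of growth.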 Calls of active or inactive are those of the source. Cut-off read from the data, not from the text of the source: active = GI50 up to about 1.1 µM and inactive = higher.

Assays:
Experiment in all cases: NCI anticancer screen, dose series, 48 h
BT-549 = tested on: BT-549
CCRF-CEM = tested on: CCRF-CEM
SW-620 = tested on: SW-620
NCI/ADR-RES = tested on: NCI/ADR-RES
SK-OV-3 = tested on: SK-OV-3
RPMI-8226 = tested on: RPMI-8226
HCT-15 = tested on: HCT-15
HCT-116 = tested on: HCT-116
Malme-3M = tested on: Malme-3M
EKVX = tested on: EKVX
HCC 2998 = tested on: HCC 2998
SF-539 = tested on: SF-539
MCF7 = tested on: MCF7
HL-60 = tested on: HL-60
OVCAR-8 = tested on: OVCAR-8
SK-MEL-28 = tested on: SK-MEL-28
A549 = tested on: A549
SK-MEL-2 = tested on: SK-MEL-2
MDA-MB-435 = tested on: MDA-MB-435

Cn1c(N2CCCC2)c(C=O)c(=O)n(C)c1=O
GI50 (BT-549): > 100 µM (inactive)
GI50 (CCRF-CEM): > 100 µM (inactive)
GI50 (SW-620): > 100 µM (inactive)
GI50 (NCI/ADR-RES): > 100 µM (inactive)
GI50 (SK-OV-3): > 100 µM (inactive)
GI50 (RPMI-8226): > 100 µM (inactive)
GI50 (HCT-15): > 100 µM
GI50 (HCT-116): > 100 µM (inactive)
GI50 (Malme-3M): 78.5 µM (inactive)
GI50 (EKVX): > 100 µM (inactive)
GI50 (HCC 2998): > 100 µM (inactive)
GI50 (SF-539): > 100 µM (inactive)
GI50 (MCF7): > 100 µM (inactive)
GI50 (HL-60): > 100 µM (inactive)
GI50 (OVCAR-8): > 100 µM (inactive)
GI50 (SK-MEL-28): > 100 µM (inactive)
GI50 (A549): > 100 µM (inactive)
GI50 (SK-MEL-2): > 100 µM (inactive)
GI50 (MDA-MB-435): > 100 µM (inactive)

Clc1cc(OCc2nn3c(Cc4ccccc4)nnc3s2)c(Cl)cc1OCc1nn2c(Cc3ccccc3)nnc2s1
GI50 (BT-549): 20.8 µM (inactive)
GI50 (CCRF-CEM): 12.3 µM (inactive)
GI50 (SW-620): > 100 µM (inactive)
GI50 (NCI/ADR-RES): 16 µM (inactive)
GI50 (SK-OV-3): 25.8 µM (inactive)
GI50 (RPMI-8226): 8.89 µM (inactive)
GI50 (HCT-15): 7.05 µM
GI50 (HCT-116): 77.1 µM (inactive)
GI50 (Malme-3M): > 100 µM (inactive)
GI50 (EKVX): 54.1 µM (inactive)
GI50 (HCC 2998): > 100 µM (inactive)
GI50 (SF-539): 42.2 µM (inactive)
GI50 (MCF7): > 100 µM (inactive)
GI50 (HL-60): 68.1 µM (inactive)
GI50 (OVCAR-8): 28.6 µM (inactive)
GI50 (SK-MEL-28): > 100 µM (inactive)
GI50 (A549): 94.8 µM (inactive)
GI50 (SK-MEL-2): > 100 µM (inactive)
GI50 (MDA-MB-435): > 100 µM (inactive)

Brc1ccc2[nH]cc([C@@H]3CN[C@@H](c4c[nH]c5ccc(Br)cc45)CN3)c2c1
GI50 (BT-549): 14.8 µM (inactive)
GI50 (CCRF-CEM): 2.16 µM (inactive)
GI50 (SW-620): 4.18 µM (inactive)
GI50 (NCI/ADR-RES): 7.66 µM (inactive)
GI50 (SK-OV-3): 12.7 µM (inactive)
GI50 (RPMI-8226): 2.12 µM (inactive)
GI50 (HCT-15): 9.44 µM
GI50 (HCT-116): 4.18 µM (inactive)
GI50 (Malme-3M): 14.8 µM (inactive)
GI50 (EKVX): 5.57 µM (inactive)
GI50 (HCC 2998): 6.52 µM (inactive)
GI50 (SF-539): 10.6 µM (inactive)
GI50 (MCF7): 3.66 µM (inactive)
GI50 (HL-60): 1.82 µM (inactive)
GI50 (OVCAR-8): 3.63 µM (inactive)
GI50 (SK-MEL-28): 13.7 µM (inactive)
GI50 (A549): 6.15 µM (inactive)
GI50 (SK-MEL-2): 8.95 µM (inactive)
GI50 (MDA-MB-435): 3.9 µM (inactive)

COc1cccc(C2c3cc4c(cc3OC(N3CCCC3)C2C)OCO4)c1O (configuration not stated)
GI50 (BT-549): 3.79 µM (inactive)
GI50 (CCRF-CEM): 4.69 µM (inactive)
GI50 (SW-620): 3.74 µM (inactive)
GI50 (NCI/ADR-RES): 3.7 µM (inactive)
GI50 (SK-OV-3): 4.36 µM (inactive)
GI50 (RPMI-8226): 4.23 µM (inactive)
GI50 (HCT-15): 3.72 µM
GI50 (HCT-116): 4.61 µM (inactive)
GI50 (Malme-3M): 6.17 µM (inactive)
GI50 (EKVX): 9.68 µM (inactive)
GI50 (HCC 2998): 12.2 µM (inactive)
GI50 (SF-539): 3.03 µM (inactive)
GI50 (MCF7): 6.68 µM (inactive)
GI50 (HL-60): 11.3 µM (inactive)
GI50 (OVCAR-8): 7.55 µM (inactive)
GI50 (SK-MEL-28): 6.5 µM (inactive)
GI50 (A549): 5.83 µM (inactive)
GI50 (SK-MEL-2): 4.14 µM (inactive)
GI50 (MDA-MB-435): 1.64 µM (inactive)

O=C(O)C#Cc1ccc([N+](=O)[O-])cc1
GI50 (BT-549): > 100 µM (inactive)
GI50 (CCRF-CEM): > 100 µM (inactive)
GI50 (SW-620): > 100 µM (inactive)
GI50 (NCI/ADR-RES): > 100 µM (inactive)
GI50 (SK-OV-3): > 100 µM (inactive)
GI50 (RPMI-8226): > 100 µM (inactive)
GI50 (HCT-15): > 100 µM
GI50 (HCT-116): > 100 µM (inactive)
GI50 (Malme-3M): > 100 µM (inactive)
GI50 (EKVX): > 100 µM (inactive)
GI50 (HCC 2998): > 100 µM (inactive)
GI50 (SF-539): > 100 µM (inactive)
GI50 (MCF7): > 100 µM (inactive)
GI50 (HL-60): > 100 µM (inactive)
GI50 (OVCAR-8): > 100 µM (inactive)
GI50 (SK-MEL-28): > 100 µM (inactive)
GI50 (A549): > 100 µM (inactive)
GI50 (SK-MEL-2): > 100 µM (inactive)
GI50 (MDA-MB-435): > 100 µM (inactive)

Cc1[nH]c(-c2ccccc2)c2nc(N(C)C)oc(=O)c12
GI50 (BT-549): > 100 µM (inactive)
GI50 (CCRF-CEM): > 100 µM (inactive)
GI50 (SW-620): > 100 µM (inactive)
GI50 (NCI/ADR-RES): > 100 µM (inactive)
GI50 (SK-OV-3): > 100 µM (inactive)
GI50 (RPMI-8226): > 100 µM (inactive)
GI50 (HCT-15): > 100 µM
GI50 (HCT-116): > 100 µM (inactive)
GI50 (Malme-3M): > 100 µM (inactive)
GI50 (EKVX): > 100 µM (inactive)
GI50 (HCC 2998): > 100 µM (inactive)
GI50 (SF-539): > 100 µM (inactive)
GI50 (MCF7): > 100 µM (inactive)
GI50 (HL-60): > 100 µM (inactive)
GI50 (OVCAR-8): > 100 µM (inactive)
GI50 (SK-MEL-28): > 100 µM (inactive)
GI50 (A549): > 100 µM (inactive)
GI50 (SK-MEL-2): > 100 µM (inactive)
GI50 (MDA-MB-435): > 100 µM (inactive)

CC(=O)OCCOCn1cc(C=O)c2ccccc21
GI50 (BT-549): > 100 µM (inactive)
GI50 (CCRF-CEM): > 100 µM (inactive)
GI50 (SW-620): > 100 µM (inactive)
GI50 (NCI/ADR-RES): > 100 µM (inactive)
GI50 (SK-OV-3): > 100 µM (inactive)
GI50 (RPMI-8226): > 100 µM (inactive)
GI50 (HCT-15): > 100 µM
GI50 (HCT-116): > 100 µM (inactive)
GI50 (Malme-3M): > 100 µM (inactive)
GI50 (EKVX): > 100 µM (inactive)
GI50 (HCC 2998): > 100 µM (inactive)
GI50 (SF-539): > 100 µM (inactive)
GI50 (MCF7): > 100 µM (inactive)
GI50 (HL-60): > 100 µM (inactive)
GI50 (OVCAR-8): > 100 µM (inactive)
GI50 (SK-MEL-28): > 100 µM (inactive)
GI50 (A549): > 100 µM (inactive)
GI50 (SK-MEL-2): > 100 µM (inactive)
GI50 (MDA-MB-435): > 100 µM (inactive)

NNC(=O)CCCCCCCC(=O)O
GI50 (BT-549): > 100 µM (inactive)
GI50 (CCRF-CEM): > 100 µM (inactive)
GI50 (SW-620): > 100 µM (inactive)
GI50 (NCI/ADR-RES): > 100 µM (inactive)
GI50 (SK-OV-3): > 100 µM (inactive)
GI50 (RPMI-8226): > 100 µM (inactive)
GI50 (HCT-15): > 100 µM
GI50 (HCT-116): > 100 µM (inactive)
GI50 (Malme-3M): > 100 µM (inactive)
GI50 (EKVX): > 100 µM (inactive)
GI50 (HCC 2998): > 100 µM (inactive)
GI50 (SF-539): > 100 µM (inactive)
GI50 (MCF7): > 100 µM (inactive)
GI50 (HL-60): > 100 µM (inactive)
GI50 (OVCAR-8): 10.4 µM (inactive)
GI50 (SK-MEL-28): > 100 µM (inactive)
GI50 (A549): > 100 µM (inactive)
GI50 (SK-MEL-2): > 100 µM (inactive)
GI50 (MDA-MB-435): > 100 µM (inactive)
